Experiments:
Taq polymerase = molecular target: T1, Taq polymerase (Thermus aquaticus, UniProt P19821); assay: Inhibition of PCR by heparin and sucrose, SYBR Green quantitation of amplicon; format: biochemical; settings: for concentration that inhibits PCR efficiency: final concentration in PCR reaction, 35 cycles
T1 construct: purchased Applied Biosystems Inc
Experimental: (§1) We discovered that heparin and sucrose inhibit reverse transcription (RT) and polymerase chain reaction (PCR). To determine the level of heparin or sucrose that inhibits these reactions, RT and PCR reactions were performed at varying heparin and sucrose concentrations. Each reaction mixture contained 25 μL 2× SYBR Green PCR Master Mix (Applied Biosystems Inc), 0.25 μL MultiScribe Reverse Transcriptase at 50U/μl (ABI), 0.4 μL RNase Inhibitor at 20U/μl (ABI), 25 nM forward primer, 25 nM reverse primer, 10 μl RNA template, and enough water to bring the final reaction volume to 50 μl. For the RT reactions, E coli RNase P RNA was used as the RNA template, and 1.25 μl of each primer from a stock solution of 1 μM was used, giving a final primer concentration of 25 nM. The RNase P primers were RNASEP-F19 (5′-[…]-3′, SEQ ID NO: 1) and RNASEP-R278 (5′-[…]-3′, SEQ ID NO: 2). All primers were purchased from Integrated DNA Technologies, Inc. The 2× SYBR Green Master Mix contains Taq polymerase, nucleotides, buffer, and magnesium. These reaction mixtures were assembled in a Micro Amp Optical 96 well reaction plate (ABI).
PCR reactions were also performed in the presence of varying amounts of heparin and sucrose. The plasmid pJA2′, which contains the DNA copy of the E coli RNase P RNA, was used as the template in these PCR reactions to generate both experimental and standard curves. Thirty-five cycles of PCR were performed in which the reaction mixture was incubated at 95° C. for 15 seconds for denaturation and 60° C. for one minute for annealing and extension. The reaction mixtures in the 96 well plate were loaded in the Gene Amp 5700 Sequence Detection System (ABI). This machine quantitates the amount of PCR product made after each cycle. A standard curve is generated with each reaction and used to calculate the quantity of the PCR product or amplicon for each experimental reaction. For the “Raw Activity” column in Table 2 the units are ng of DNA.

[1] = molecular target: T2, MultiScribe Reverse Transcriptase (Moloney murine leukemia virus, UniProt P03355); assay: Inhibition of reverse transcription (RT) by heparin and sucrose, 32P-labeled primer extension; format: biochemical
T2 construct: MultiScribe Reverse Transcriptase; purchased ABI (Applied Biosystems Inc)
Experimental: as §1
To examine the reverse transcription efficiency in the presence of sucrose and heparin, the reverse primer specific for RNase P RNA was ^32P labeled, and used as the only source of reverse primer. The radiolabeled primer was extended using reverse transcription during an incubation at 48° C. for 30 minutes. The resultant DNA was isolated and separated on a 6% denaturing gel. After soaking and drying the gel, the ^32P labeled reverse transcription product was quantitated using the Cyclone Storage Phosphor System (Packard) and Optiquant Image Analysis Software (Packard). This software reports the intensity of a selected band on the gel in units called Digital Light Units (DLU). The number of DLUs is listed in the “Raw Activity” column in Table 1. The amounts of sucrose and heparin in the samples as well as the final concentration of sucrose (percent weight per volume, % w/v) and heparin in the RT reaction are also listed. The highest amount represents 30% sucrose (average of the amount in a typical sucrose gradient) and 1 mg/mL heparin (amount of heparin in a typical sucrose gradient fraction). The amount of reverse transcription activity (“% RT” column) is expressed as a percent of the activity in the presence of differing amounts of sucrose or heparin relative to the activity in the absence of these substances.

[2] = sucrose 0.001 % w/v final in PCR reaction (0.04 % in sample)
[3] = sucrose 0.004 % w/v final in PCR reaction (0.12 % in sample)
[4] = sucrose 0.014 % w/v final in PCR reaction (0.37 % in sample)
[5] = sucrose 0.044 % w/v final in PCR reaction (1.11 % in sample)
[6] = sucrose 0.133 % w/v final in PCR reaction (3.33 % in sample)
[7] = sucrose 0.4 % w/v final in PCR reaction (10 % in sample)
[8] = sucrose 1.2 % w/v final in PCR reaction (30 % in sample)
[9] = sucrose 0.001 % W/V final in RT reaction (0.04 % in sample)
[10] = sucrose 0.004 % W/V final in RT reaction (0.12 % in sample)
[11] = sucrose 0.014 % W/V final in RT reaction (0.37 % in sample)
[12] = sucrose 0.044 % W/V final in RT reaction (1.11 % in sample)
[13] = sucrose 0.133 % W/V final in RT reaction (3.33 % in sample)
[14] = sucrose 0.4 % W/V final in RT reaction (10 % in sample)
[15] = sucrose 1.2 % W/V final in RT reaction (30 % in sample)
[16] = heparin 0.002 ng/μL final in PCR reaction (0.06 in sample)
[17] = heparin 0.012 ng/μL final in PCR reaction (0.32 in sample)
[18] = heparin 0.064 ng/μL final in PCR reaction (1.6 in sample)
[19] = heparin 0.32 ng/μL final in PCR reaction (8 in sample)
[20] = heparin 1.6 ng/μL final in PCR reaction (40 in sample)
[21] = heparin 8 ng/μL final in PCR reaction (200 in sample)
[22] = heparin 40 ng/μL final in PCR reaction (1000 in sample)
[23] = heparin 0.002 ng/μL final in RT reaction (0.06 in sample)
[24] = heparin 0.012 ng/μL final in RT reaction (0.32 in sample)
[25] = heparin 0.064 ng/μL final in RT reaction (1.6 in sample)
[26] = heparin 0.32 ng/μL final in RT reaction (8 in sample)
[27] = heparin 1.6 ng/μL final in RT reaction (40 in sample)
[28] = heparin 8 ng/μL final in RT reaction (200 in sample)
[29] = heparin 40 ng/μL final in RT reaction (1000 in sample)

T1 sequence (P19821 whole entry): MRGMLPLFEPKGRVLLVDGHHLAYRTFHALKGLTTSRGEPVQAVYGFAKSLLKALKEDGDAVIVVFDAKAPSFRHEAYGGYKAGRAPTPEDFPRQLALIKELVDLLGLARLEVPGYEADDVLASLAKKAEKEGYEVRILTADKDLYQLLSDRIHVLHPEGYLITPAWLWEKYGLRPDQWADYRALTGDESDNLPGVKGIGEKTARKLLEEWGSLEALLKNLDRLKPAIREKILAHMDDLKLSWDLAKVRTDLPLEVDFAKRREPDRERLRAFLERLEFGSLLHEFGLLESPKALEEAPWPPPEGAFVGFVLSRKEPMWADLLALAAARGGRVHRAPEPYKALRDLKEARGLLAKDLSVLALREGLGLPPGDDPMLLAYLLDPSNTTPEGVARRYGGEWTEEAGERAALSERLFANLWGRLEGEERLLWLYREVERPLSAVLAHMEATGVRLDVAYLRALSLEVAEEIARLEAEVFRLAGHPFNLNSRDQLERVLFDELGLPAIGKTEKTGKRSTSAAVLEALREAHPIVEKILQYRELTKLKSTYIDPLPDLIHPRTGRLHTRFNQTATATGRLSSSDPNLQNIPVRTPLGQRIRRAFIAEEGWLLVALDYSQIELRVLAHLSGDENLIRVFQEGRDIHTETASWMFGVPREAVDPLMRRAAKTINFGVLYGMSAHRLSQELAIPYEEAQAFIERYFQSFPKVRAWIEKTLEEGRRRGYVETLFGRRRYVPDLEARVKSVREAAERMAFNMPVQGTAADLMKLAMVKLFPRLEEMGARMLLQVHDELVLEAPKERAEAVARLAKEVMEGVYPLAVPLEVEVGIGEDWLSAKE

Compound: OC[C@H]1O[C@@](CO)(O[C@H]2O[C@H](CO)[C@@H](O)[C@H](O)[C@H]2O)[C@@H](O)[C@@H]1O [Sucrose, sucrose]
- concentration that inhibits PCR efficiency (Taq polymerase): 0.004 % w/v
- % PCR (Taq polymerase; [2]): 102%
- Raw Activity (quantity of PCR product) (Taq polymerase; [2]): 10.2 ng of DNA
- % PCR (Taq polymerase; [3]): 66.6%
- Raw Activity (quantity of PCR product) (Taq polymerase; [3]): 6.66 ng of DNA
- % PCR (Taq polymerase; [4]): 67%
- Raw Activity (quantity of PCR product) (Taq polymerase; [4]): 6.7 ng of DNA
- % PCR (Taq polymerase; [5]): 61%
- Raw Activity (quantity of PCR product) (Taq polymerase; [5]): 6.1 ng of DNA
- % PCR (Taq polymerase; [6]): 65.7%
- Raw Activity (quantity of PCR product) (Taq polymerase; [6]): 6.57 ng of DNA
- % PCR (Taq polymerase; [7]): 66.7%
- Raw Activity (quantity of PCR product) (Taq polymerase; [7]): 6.67 ng of DNA
- % PCR (Taq polymerase; [8]): 72.6%
- Raw Activity (quantity of PCR product) (Taq polymerase; [8]): 7.26 ng of DNA
- % RT (reverse transcription activity relative to activity in absence of substance) [1, 9]: 133.445%
- Raw Activity (RT product band intensity) [1, 9]: 7.94 DLU
- % RT (reverse transcription activity relative to activity in absence of substance) [1, 10]: 158.487%
- Raw Activity (RT product band intensity) [1, 10]: 9.43 DLU
- % RT (reverse transcription activity relative to activity in absence of substance) [1, 11]: 171.933%
- Raw Activity (RT product band intensity) [1, 11]: 10.23 DLU
- % RT (reverse transcription activity relative to activity in absence of substance) [1, 12]: 159.832%
- Raw Activity (RT product band intensity) [1, 12]: 9.51 DLU
- % RT (reverse transcription activity relative to activity in absence of substance) [1, 13]: 155.798%
- Raw Activity (RT product band intensity) [1, 13]: 9.27 DLU
- % RT (reverse transcription activity relative to activity in absence of substance) [1, 14]: 119.328%
- Raw Activity (RT product band intensity) [1, 14]: 7.1 DLU
- % RT (reverse transcription activity relative to activity in absence of substance) [1, 15]: 96.1345%
- Raw Activity (RT product band intensity) [1, 15]: 5.72 DLU
- effect on the efficiency of reverse transcription ([1]; up to 1.2 % W/V sucrose final, 48° C. for 30 minutes): does not inhibit

Compound: heparin
- concentration that inhibits PCR efficiency (Taq polymerase): 0.012 ng/µL
- % PCR (Taq polymerase; [16]): 107.69%
- Raw Activity (quantity of PCR product) (Taq polymerase; [16]): 0.002 11.2 ng of DNA
- % PCR (Taq polymerase; [17]): 75.962%
- Raw Activity (quantity of PCR product) (Taq polymerase; [17]): 7.9 ng of DNA
- % PCR (Taq polymerase; [18]): 29.808%
- Raw Activity (quantity of PCR product) (Taq polymerase; [18]): 3.1 ng of DNA
- % PCR (Taq polymerase; [19]): 0%
- Raw Activity (quantity of PCR product) (Taq polymerase; [19]): 0 ng of DNA
- % PCR (Taq polymerase; [20]): 0%
- Raw Activity (quantity of PCR product) (Taq polymerase; [20]): 0 ng of DNA
- % PCR (Taq polymerase; [21]): 0%
- Raw Activity (quantity of PCR product) (Taq polymerase; [21]): 0 ng of DNA
- % PCR (Taq polymerase; [22]): 0%
- Raw Activity (quantity of PCR product) (Taq polymerase; [22]): 0 ng of DNA
- concentration that significantly inhibits reverse transcription efficiency ([1]; final concentration in RT reaction): ≥ 0.32 ng/µL
- % RT (reverse transcription activity relative to activity in absence of substance) [1, 23]: 108.01%
- Raw Activity (RT product band intensity) [1, 23]: 10.79 DLU
- % RT (reverse transcription activity relative to activity in absence of substance) [1, 24]: 101.8%
- Raw Activity (RT product band intensity) [1, 24]: 10.17 DLU
- % RT (reverse transcription activity relative to activity in absence of substance) [1, 25]: 93.293%
- Raw Activity (RT product band intensity) [1, 25]: 9.32 DLU
- % RT (reverse transcription activity relative to activity in absence of substance) [1, 26]: 72.573%
- Raw Activity (RT product band intensity) [1, 26]: 7.25 DLU
- % RT (reverse transcription activity relative to activity in absence of substance) [1, 27]: 3.6036%
- Raw Activity (RT product band intensity) [1, 27]: 0.36 DLU
- % RT (reverse transcription activity relative to activity in absence of substance) [1, 28]: 0.6006%
- Raw Activity (RT product band intensity) [1, 28]: 0.06 DLU
- % RT (reverse transcription activity relative to activity in absence of substance) [1, 29]: 0.8008%
- Raw Activity (RT product band intensity) [1, 29]: 0.08 DLU

Source: patent publication US20030170702A1, “Methods for polysome distribution analysis of mRNA's” (priority 2002, published 2003)
